Values of other authors in US20070191377A1, “Methods for treating blood disorders with nitric oxide donor compounds” (NitroMed, Inc., priority 2004, published 2007).

O=[N+]([O-])O[C@H]1CO[C@H]2[C@@H]1OC[C@H]2O[N+](=O)[O-] [isosorbide dinitrate, 1,4,3,6-dianhydro-D-glucitol-2,5-dinitrate]
solubility in organic solvents (organic solvents such as ethanol, ether and chloroform): freely soluble
solubility in water (water): sparingly soluble
